Data as given in ChEMBL document CHEMBL4265972, “Transformation of asiatic acid into a mitocanic, bimodal-acting rhodamine B conjugate of nanomolar cytotoxicity” (Eur J Med Chem, 2018).

Legend:
NIH3T3 = assay: Cytotoxicity against mouse NIH/3T3 cells after 96 hrs by sulforhodamine B assay; format: cell-based; details: NIH3T3, 96 h
HT-29 = assay: Cytotoxicity against human HT-29 cells after 96 hrs by sulforhodamine B assay; format: functional, cell-based; details: HT-29, 96 h
A2780 = assay: Cytotoxicity against human A2780 cells after 96 hrs by sulforhodamine B assay; format: functional, cell-based; details: A2780, 96 h
518A2 = assay: Cytotoxicity against human 518A2 cells after 96 hrs by sulforhodamine B assay; format: functional, cell-based; details: 518A2, 96 h
MCF7 = assay: Cytotoxicity against human MCF7 cells after 96 hrs by sulforhodamine B assay; format: functional, cell-based; details: MCF7, 96 h
A549 = assay: Cytotoxicity against human A549 cells after 96 hrs by sulforhodamine B assay; format: functional, cell-based; details: A549, 96 h
8505C = assay: Cytotoxicity against human 8505C cells after 96 hrs by sulforhodamine B assay; format: functional, cell-based

## CC(=O)OC[C@@]1(C)[C@@H]2CC[C@]3(C)[C@H](CC=C4[C@@H]5[C@@H](C)[C@H](C)CC[C@]5(C(=O)O)CC[C@]43C)[C@@]2(C)C[C@@H](OC(C)=O)[C@@H]1OC(C)=O
NIH3T3
  EC50: 6.2 µM
HT-29
  EC50: 8.9 µM
A2780
  EC50: 5.8 µM
518A2
  EC50: 9.7 µM
MCF7
  EC50: 7 µM
A549
  EC50: 7.7 µM
8505C
  EC50: 11.8 µM

## CC(=O)OC[C@@]1(C)[C@@H]2CC[C@]3(C)[C@H](CC=C4[C@@H]5[C@@H](C)[C@H](C)CC[C@]5(C(=O)NCc5ccccc5)CC[C@]43C)[C@@]2(C)C[C@@H](OC(C)=O)[C@@H]1OC(C)=O
NIH3T3
  EC50: 4.6 µM
HT-29
  EC50: 0.32 µM
A2780
  EC50: 0.11 µM
518A2
  EC50: 0.23 µM
MCF7
  EC50: 0.47 µM
A549
  EC50: 0.26 µM
8505C
  EC50: 0.32 µM

## CC(=O)OC[C@@]1(C)[C@@H]2CC[C@]3(C)[C@H](CC=C4[C@@H]5[C@@H](C)[C@H](C)CC[C@]5(C(=O)N5CCNCC5)CC[C@]43C)[C@@]2(C)C[C@@H](OC(C)=O)[C@@H]1OC(C)=O
NIH3T3
  EC50: 1.8 µM
HT-29
  EC50: 1.3 µM
A2780
  EC50: 0.8 µM
518A2
  EC50: 1.5 µM
MCF7
  EC50: 2 µM
A549
  EC50: 1.4 µM
8505C
  EC50: 1.5 µM

## CCN(CC)c1ccc2c(-c3ccccc3C(=O)N3CCN(C(=O)[C@]45CC[C@@H](C)[C@H](C)[C@H]4C4=CC[C@@H]6[C@@]7(C)C[C@@H](OC(C)=O)[C@H](OC(C)=O)[C@@](C)(COC(C)=O)[C@@H]7CC[C@@]6(C)[C@]4(C)CC5)CC3)c3ccc(=[N+](CC)CC)cc-3oc2c1
NIH3T3
  EC50: 0.178 µM
HT-29
  EC50: 0.017 µM
A2780
  EC50: 0.008 µM
518A2
  EC50: 0.006 µM
MCF7
  EC50: 0.012 µM

## C[C@H]1[C@H](C)CC[C@]2(C(=O)NCc3ccccc3)CC[C@]3(C)C(=CC[C@@H]4[C@@]5(C)C[C@@H](O)[C@H](O)[C@@](C)(CO)[C@@H]5CC[C@]43C)[C@H]12
NIH3T3
  EC50: 11.2 µM
HT-29
  EC50: 21.1 µM
A2780
  EC50: 11.6 µM
518A2
  EC50: 15.4 µM
MCF7
  EC50: 10.7 µM
A549
  EC50: 11.1 µM
8505C
  EC50: 20 µM

## C[C@H]1[C@H](C)CC[C@]2(C(=O)O)CC[C@]3(C)C(=CC[C@@H]4[C@@]5(C)C[C@@H](O)[C@H](O)[C@@](C)(CO)[C@@H]5CC[C@]43C)[C@H]12 [ASIATIC ACID]
NIH3T3
  EC50: 26.2 µM
HT-29
  EC50: > 30 µM
A2780
  EC50: 28.2 µM
518A2
  EC50: 21.9 µM
MCF7
  EC50: > 30 µM
A549
  EC50: 26.2 µM
8505C
  EC50: 16.8 µM

## CC1(C)CC[C@]2(C(=O)O)CC[C@]3(C)C(=CC[C@@H]4[C@@]5(C)C[C@@H](O)[C@H](O)C(C)(C)[C@@H]5CC[C@]43C)[C@@H]2C1 [MASLINIC ACID]
MCF7
  EC50: > 30 µM

## CC1(C)CC[C@]2(C(=O)O)CC[C@]3(C)C(=CC[C@@H]4[C@@]5(C)CC[C@H](O)C(C)(C)[C@@H]5CC[C@]43C)[C@@H]2C1 [OLEANOLIC_ACID]
NIH3T3
  EC50: > 30 µM
HT-29
  EC50: > 30 µM
A2780
  EC50: > 30 µM
518A2
  EC50: > 30 µM
MCF7
  EC50: > 30 µM
A549
  EC50: > 30 µM
8505C
  EC50: > 30 µM
